We go through 10 compounds from ChEMBL document CHEMBL3856225, “Design, synthesis and biological evaluation of 5-benzylidene-2-iminothiazolidin-4-ones as selective GSK-3β inhibitors” (Eur J Med Chem, 2016).

Assay [1] deals with T1, Glycogen synthase kinase-3 beta (Homo sapiens, UniProt P49841). Description: Inhibition of His-tagged full length human recombinant GSK-3beta expressed in Baculovirus at 0.5 uM using Ser/Thr9 peptide as substrate by Z' LYTE assay relative to control.
Target sequence in this assay (P49841 whole entry, looked up): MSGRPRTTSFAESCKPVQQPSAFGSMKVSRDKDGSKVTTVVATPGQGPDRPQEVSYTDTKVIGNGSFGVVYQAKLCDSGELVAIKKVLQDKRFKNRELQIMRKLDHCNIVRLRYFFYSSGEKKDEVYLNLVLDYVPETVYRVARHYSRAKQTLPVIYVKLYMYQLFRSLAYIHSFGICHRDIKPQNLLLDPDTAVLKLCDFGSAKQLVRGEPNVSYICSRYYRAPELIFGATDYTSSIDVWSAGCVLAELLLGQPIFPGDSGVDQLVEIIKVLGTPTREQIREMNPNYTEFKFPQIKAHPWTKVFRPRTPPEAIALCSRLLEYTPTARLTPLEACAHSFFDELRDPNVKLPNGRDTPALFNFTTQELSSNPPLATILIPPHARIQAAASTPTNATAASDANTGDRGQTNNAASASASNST
In assay [2] the target is Cyclin-dependent kinase 2 (Homo sapiens) (UniProt P24941). The assay is described as follows: Inhibition of GST-tagged human recombinant CDK2 assessed as residual activity at 2 uM using Ser/Thr12 peptide as substrate by Z' LYTE assay relative to control.
Assay [3] concerns the target T1, Glycogen synthase kinase-3 beta. Description: Inhibition of His-tagged full length human recombinant GSK-3beta expressed in Baculovirus using Ser/Thr9 peptide as substrate by Z' LYTE assay.
Target sequence in this assay (P49841 whole entry): as the sequence (P49841 whole entry, looked up) above

Structures are written as SMILES. A value given as a limit tells only on which side of the number the result lay.

As usually defined, the inhibition is the drop in the measured response relative to a control, in per cent. For orientation: IC50 means the concentration needed to halve the response being measured. Turning to `O=C1N/C(=N/c2ccccc2)S/C1=C\c1ccc(O)cc1`, in assay [1], the inhibition is above 50%. Further, the Activity in assay [2] turned out to be 69.6%. In assay [3], the IC50 worked out at 27.7 nM.
Consider `COc1ccc(/C=C2\SC(=N)NC2=O)cc1OC`, for which the inhibition in assay [1] is above 50%. For the same compound, the IC50 in assay [3] came out at 80.5 nM.
With `COc1cc(/C=C2\SC(=N)NC2=O)ccc1O`, in assay [1], the inhibition is above 50%.
Consider `O=C1N=C(NCc2ccccc2)S/C1=C\c1ccc(O)cc1`, for which the inhibition in assay [1] is above 50%. The Activity in assay [2] worked out at 63.2%. Besides, the IC50 in assay [3] worked out at 27.1 nM.
As for `O=C1N/C(=N/Cc2ccccc2)S/C1=C\c1ccc(Cl)c([N+](=O)[O-])c1`, the inhibition in assay [1] is above 50%. The Activity in assay [2] was found to be 68.4%. For the same compound, in assay [3], the IC50 amounted to 24 nM.
As for `O=C1N/C(=N/c2ccccc2)S/C1=C\c1ccc(F)cc1`, the inhibition in assay [1] was above 50%. The Activity in assay [2] was 68.9%. Besides, the half-maximal inhibitory concentration (IC50) in assay [3] was 40 nM.
Turning to `COc1ccc(/C=C2\S/C(=N\Cc3ccccc3)NC2=O)cc1[N+](=O)[O-]`, the inhibition in assay [1] was above 50%. In assay [2], the Activity stood at 73%. Besides, the IC50 in assay [3] turned out to be 2.1 nM.
Regarding `N=C1NC(=O)/C(=C/c2ccc(O)c(C(=O)O)c2)S1`, the inhibition in assay [1] is above 50%. For the same compound, the IC50 in assay [3] was 84.8 nM.
As for `COc1ccc(/C=C2\S/C(=N\Cc3ccccc3)NC2=O)cc1OC`, in assay [1], the inhibition is above 50%. Also, in assay [2], the Activity turned out to be 53.8%. For the same compound, in assay [3], the IC50 turned out to be 44.3 nM.
Turning to `CCOc1cc(/C=C2\S/C(=N\Cc3ccccc3)NC2=O)ccc1O`, in assay [1], the inhibition is above 50%. The Activity in assay [2] was determined as 39.1%. Besides, the IC50 in assay [3] is 51.7 nM.
